Assay results: US9850216B2 (H. LEE MOFFITT CANCER CENTER AND RESEARCH INSTITUTE, INC., priority 2013, dated 2017)
Several values for one entry are separate records, joined by “and”; a condition that tells them apart may be missing. Equal entries are not always repeated. Where two headings read alike, the source gives them in different places.

How the values were obtained:
ACK1 = ACK1 (Homo sapiens, UniProt Q07912); experiment: ACK1 ELISA: phosphorylation of AKT-derived peptide; assay type: biochemical; details: Table 1, replicate values listed
[1] = 10 μM, read-out: % Inhibition at 10 μM (ELISA)

Sequence of ACK1 (Q07912 whole entry): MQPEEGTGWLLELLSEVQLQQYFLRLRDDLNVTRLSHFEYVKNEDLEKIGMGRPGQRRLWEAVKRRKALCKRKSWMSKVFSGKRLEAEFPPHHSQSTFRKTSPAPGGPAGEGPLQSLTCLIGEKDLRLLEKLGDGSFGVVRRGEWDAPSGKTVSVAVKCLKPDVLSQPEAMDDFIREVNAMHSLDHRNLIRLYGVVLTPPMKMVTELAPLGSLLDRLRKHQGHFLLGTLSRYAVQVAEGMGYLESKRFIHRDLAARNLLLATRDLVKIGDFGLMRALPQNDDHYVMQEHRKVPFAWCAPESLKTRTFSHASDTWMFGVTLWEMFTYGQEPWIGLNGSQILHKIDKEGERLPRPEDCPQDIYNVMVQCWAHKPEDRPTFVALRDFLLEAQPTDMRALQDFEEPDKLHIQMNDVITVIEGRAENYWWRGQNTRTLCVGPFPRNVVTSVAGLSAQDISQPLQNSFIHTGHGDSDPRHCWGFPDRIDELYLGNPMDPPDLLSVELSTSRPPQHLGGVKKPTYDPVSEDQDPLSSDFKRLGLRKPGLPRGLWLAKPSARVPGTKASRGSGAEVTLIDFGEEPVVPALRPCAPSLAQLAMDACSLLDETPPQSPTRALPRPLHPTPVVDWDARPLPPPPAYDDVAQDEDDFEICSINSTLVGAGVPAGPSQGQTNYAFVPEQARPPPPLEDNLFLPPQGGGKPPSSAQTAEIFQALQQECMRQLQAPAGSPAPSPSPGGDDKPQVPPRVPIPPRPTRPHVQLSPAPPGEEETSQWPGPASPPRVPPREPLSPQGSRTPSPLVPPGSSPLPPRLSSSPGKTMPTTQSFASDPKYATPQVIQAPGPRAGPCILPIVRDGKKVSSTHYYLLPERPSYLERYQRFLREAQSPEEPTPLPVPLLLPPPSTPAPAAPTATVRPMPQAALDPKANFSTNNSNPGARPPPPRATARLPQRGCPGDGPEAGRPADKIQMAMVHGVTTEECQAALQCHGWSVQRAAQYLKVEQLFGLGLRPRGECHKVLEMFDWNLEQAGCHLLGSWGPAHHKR

Row | melting point | % Inhibition at 10 μM (ELISA) (ACK1; 10 μM) | inhibition at 10 µM (ACK1; [1]) [%] | % Inhibition at 10 μM (ELISA) (ACK1; 10 μM, hydrochloride) | SMILES | inhibition at 10 µM (ACK1; read-out: % Inhibition at 10 μM (ELISA), 10 μM) [%]
1 | 180 °C (dec.) | 64% | 52 | – | Cl.O=C(O)CCCc1ccc(Nc2ncc(Cl)c(NC[C@@H]3CCCO3)n2)cc1 [NT1-027, (S)-4-(4-(5-Chloro-4-((tetrahydrofuran-2-yl)methylamino)pyrimidin-2-ylamino)phenyl)butanoic acid] | –
2 | 250 °C (dec.) | 1% and 0% | – | – | CCSc1ccccc1Nc1nc(Nc2ccc(OC)cc2)ncc1C(=O)Nc1c(F)cccc1Cl [YL7-058-3, N-(2-chloro-6-fluorophenyl)-4-(2-(ethylthio)phenylamino)-2-(4-methoxyphenylamino)pyrimidine-5-carboxamide] | –
3 | 261 °C (dec.) | 7% and 0% | – | – | COc1ccc(Nc2ncc(C(=O)Nc3c(F)cccc3Cl)c(Nc3ccccc3SC)n2)cc1 [YL7-039-1, N-(2-chloro-6-fluorophenyl)-2-(4-methoxyphenylamino)-4-(2-(methylthio)phenylamino)pyrimidine-5-carboxamide] | –
4 | 202 to 205 °C | – | 0 | – | CC(C)Sc1ccccc1Nc1nc(Cl)ncc1C(=O)Nc1c(F)cccc1Cl [YL7-040, 2-Chloro-N-(2-chloro-6-fluorophenyl)-4-(2-(isopropylthio)phenylamino)pyrimidine-5-carboxamide] | –
5 | 251 °C (dec.) | – | – | 31% and 77% and 82% | Cl.NC(=O)c1ccc(Nc2ncc(Br)c(NCC3CCCO3)n2)cc1 (stereo not shown) [YL7-172-5, 4-(5-Bromo-4-((tetrahydrofuran-2-yl)methylamino)pyrimidin-2-ylamino)benzamide hydrochloride] | –
6 | 211 to 214 °C | 16% and −3% and −6% | – | – | CS(=O)(=O)c1ccccc1Nc1nc(Cl)ncc1C(=O)Nc1c(F)cccc1Cl [YL7-034, 2-Chloro-N-(2-chloro-6-fluorophenyl)-4-(2-(methylsulfonyl)phenylamino)pyrimidine-5-carboxamide] | –
7 | 267 °C (dec.) | 4% and 0% | – | – | COc1ccc(Nc2ncc(C(=O)Nc3c(F)cccc3Cl)c(Nc3ccccc3S(C)(=O)=O)n2)cc1 [YL7-037, N-(2-chloro-6-fluorophenyl)-2-(4-methoxyphenylamino)-4-(2-(methylsulfonyl)phenylamino)pyrimidine-5-carboxamide] | –
8 | 192 °C (dec.) | 6% | 8 | – | CC(C)S(=O)(=O)c1ccccc1Nc1nc(Nc2ccc(S(N)(=O)=O)cc2)ncc1C(=O)Nc1c(F)cccc1Cl [YL7-100-1] | –
9 | 60.1 °C (dec.) | 14% | 19 | – | CN1CCN(c2ccc(Nc3nc(NCC4CCCO4)c4ccccc4n3)cc2)CC1 (stereo not shown) [DZ1-106, N2-(4-(4-methylpiperazin-1-yl)phenyl)-N4-((tetrahydrofuran-2-yl)methyl)quinazoline-2,4-diamine] | –
10 | 184 to 186 °C | – | 28 | 31% | CC(C)(C)OC(=O)N1CCN(c2ccc(Nc3ncc(C(=O)Nc4c(F)cccc4Cl)c(NCC4CCCO4)n3)cc2)CC1.Cl (stereo not shown) [YL9-161, tert-Butyl4-(4-(5-(2-chloro-6-fluorophenylcarbamoyl)-4-((tetrahydrofuran-2-yl)methylamino)pyrimidin-2-ylamino)phenyl)piperazine-1-carboxylate hydrochloride] | –
11 | 263 to 265 °C | −6% and 0% | – | – | CCS(=O)(=O)c1ccccc1Nc1nc(Nc2ccc(OC)cc2)ncc1C(=O)Nc1c(F)cccc1Cl [YL7-058-1, N-(2-chloro-6-fluorophenyl)-4-(2-(ethylsulfonyl)phenylamino)-2-(4-methoxyphenylamino)pyrimidine-5-carboxamide] | –
12 | 172 °C (dec.) | – | – | 0% and 5% and 3% | Cl.Fc1cc(Nc2ncc(Br)c(NCC3CCCO3)n2)ccc1Cl (stereo not shown) [YL7-172-7, 5-Bromo-N2-(4-chloro-3-fluorophenyl)-N4-((tetrahydrofuran-2-yl)methyl)pyrimidine-2,4-diamine hydrochloride] | –
13 | 142 °C (dec.) | – | 0 | – | O=C(Nc1c(F)cccc1Cl)c1cnc(Cl)nc1NCC1CCCO1 (stereo not shown) [YL7-102, 2-Chloro-N-(2-chloro-6-fluorophenyl)-4-((tetrahydrofuran-2-yl)methylamino)pyrimidine-5-carboxamide] | –
14 | 298 °C (dec.) | – | 44 | 40% and 55% | Cl.O=C(O)c1cc(Nc2ncc(C(=O)Nc3c(F)cccc3Cl)c(NCC3CCCO3)n2)ccc1O (stereo not shown) [YL8-009-2, 5-(5-(2-Chloro-6-fluorophenylcarbamoyl)-4-((tetrahydrofuran-2-yl)methylamino)pyrimidin-2-ylamino)-2-hydroxybenzoic acid hydrochloride] | –
15 | 225 to 227 °C | 7% and −21% and −27% | – | – | CC(C)S(=O)(=O)c1ccccc1Nc1nc(Cl)ncc1C(=O)Nc1c(F)cccc1Cl [YL7-041, 2-Chloro-N-(2-chloro-6-fluorophenyl)-4-(2-(isopropylsulfonyl)phenylamino)pyrimidine-5-carboxamide] | –
16 | 220 °C (dec.) | 65% | 85 | – | CC(C)S(=O)(=O)c1ccccc1Nc1nc(Nc2ccc(N3CCOCC3)cc2)ncc1C(=O)Nc1c(F)cccc1Cl [YL7-097-1, N-(2-chloro-6-fluorophenyl)-4-(2-(isopropylsulfonyl)phenylamino)-2-(4-morpholinophenylamino)pyrimidine-5-carboxamide] | –
17 | 120 °C (dec.) | 63% | 59 | – | Cl.O=C(O)Cc1ccc(Nc2ncc(Br)c(NCC3CCCO3)n2)cc1 (stereo not shown) [NT1-022, 2-(4-(5-Bromo-4-((tetrahydrofuran-2-yl)methylamino)pyrimidin-2-ylamino)phenyl)acetic acid] | –
18 | 227 °C (dec.) | 14% and 0% | – | – | COc1ccc(CNc2ncc(C(=O)Nc3c(F)cccc3Cl)c(Nc3ccccc3S(=O)(=O)C(C)C)n2)cc1 [YL7-106-1, N-(2-chloro-6-fluorophenyl)-4-(2-(isopropylsulfonyl)phenylamino)-2-(4-methoxybenzylamino)pyrimidine-5-carboxamide] | –
19 | 205 to 208 °C | – | 0 | – | CCSc1ccccc1Nc1nc(Cl)ncc1C(=O)Nc1c(F)cccc1Cl [YL7-053, 2-Chloro-N-(2-chloro-6-fluorophenyl)-4-(2-(ethylthio)phenylamino)pyrimidine-5-carboxamide] | –
20 | 230 °C (dec.) | 43% | 51 | – | CC(C)S(=O)(=O)c1ccccc1Nc1nc(Nc2ccc(C(N)=O)cc2)ncc1C(=O)Nc1c(F)cccc1Cl [YL7-106-3, 2-(4-Carbamoylphenylamino)-N-(2-chloro-6-fluorophenyl)-4-(2-(isopropylsulfonyl)phenylamino)pyrimidine-5-carboxamide] | –
21 | 201 °C (dec.) | 68% and 43% | – | – | CCS(=O)(=O)c1ccccc1Nc1nc(Nc2ccc(O)cc2)ncc1C(=O)Nc1c(F)cccc1Cl [YL7-058-2, N-(2-chloro-6-fluorophenyl)-4-(2-(ethylsulfonyl)phenylamino)-2-(4-hydroxyphenylamino)pyrimidine-5-carboxamide] | –
22 | 214 °C (dec.) | – | 56 | 68% and 63% | Cl.NS(=O)(=O)c1ccc(Nc2ncc(Br)c(NCC3CCCO3)n2)cc1 (stereo not shown) [YL8-003-3, 4-(5-Bromo-4-((tetrahydrofuran-2-yl)methylamino)pyrimidin-2-ylamino)benzenesulfonamide hydrochloride] | –
23 | 248 to 249 °C | 1% and 13% | – | – | CCCSc1ccccc1Nc1nc(Nc2ccc(OC)cc2)ncc1C(=O)Nc1c(F)cccc1Cl [YL7-055-3, N-(2-chloro-6-fluorophenyl)-2-(4-methoxyphenylamino)-4-(2-(propylthio)phenylamino)pyrimidine-5-carboxamide] | –
24 | 165 °C (dec.) | 58% | 57 | – | CCCS(=O)(=O)c1ccccc1Nc1nc(Nc2ccc(O)cc2)ncc1C(=O)Nc1c(F)cccc1Cl [YL7-055-2, N-(2-chloro-6-fluorophenyl)-2-(4-hydroxyphenylamino)-4-(2-(propylsulfonyl)phenylamino)pyrimidine-5-carboxamide] | –
25 | 194 to 197 °C | – | – | 69% and 21% and 25% | Cl.Fc1cccc(Nc2ncc(Br)c(NCC3CCCO3)n2)c1 (stereo not shown) [YL7-172-3, 5-Bromo-N2-(3-fluorophenyl)-N4-((tetrahydrofuran-2-yl)methyl)pyrimidine-2,4-diamine hydrochloride] | –
26 | 238 °C (dec.) | 39% and 18% | – | – | CS(=O)(=O)c1ccccc1Nc1nc(Nc2ccc(O)cc2)ncc1C(=O)Nc1c(F)cccc1Cl [YL7-038, N-(2-chloro-6-fluorophenyl)-2-(4-hydroxyphenylamino)-4-(2-(methylsulfonyl)phenylamino)pyrimidine-5-carboxamide] | –
27 | 158 °C (dec.) | – | 41 | 42% and 48% | Cl.O=C(Nc1c(F)cccc1Cl)c1cnc(Nc2ccc(O)c(Cl)c2)nc1NCC1CCCO1 (stereo not shown) [YL8-009-1, 2-(3-Chloro-4-hydroxyphenylamino)-N-(2-chloro-6-fluorophenyl)-4-((tetrahydrofuran-2-yl)methylamino)pyrimidine-5-carboxamide hydrochloride] | –
28 | 145.4 °C (dec.) | 15% and 5% | – | – | Cc1cnc(Nc2ccc(O)cc2)nc1NCC1CCCO1 (stereo not shown) [DZ1-116, 4-(5-methyl-4-((tetrahydrofuran-2-yl)methylamino)pyrimidin-2-ylamino)phenol] | –

Row | SMILES | melting point | % Inhibition at 10 μM (ELISA) (ACK1; 10 μM) | inhibition at 10 µM (ACK1; [1]) [%] | % Inhibition at 10 μM (ELISA) (ACK1; 10 μM, hydrochloride) | inhibition at 10 µM (ACK1; read-out: % Inhibition at 10 μM (ELISA), 10 μM) [%]
29 | O=C(O)CCCc1ccc(Nc2ncc(Cl)c(NCC3CCCO3)n2)cc1 (stereo not shown) [NT1-025, 4-(4-(5-Chloro-4-((tetrahydrofuran-2-yl)methylamino)pyrimidin-2-ylamino)phenyl)butanoic acid] | 180 °C (dec.) | 65% | – | – | 61
